In patent US8551972B2, “Agonists of A2A adenosine receptors for treating recurrent tumor growth” (Adenosine Therapeutics, LLC, priority 2007, dated 2013):
“Also recorded” adds a separate entry of the source.

System: C26 colorectal carcinoma liver metastases
Test: Mouse model of hepatic ischemia/reperfusion (I/R)-accelerated outgrowth of C26 colorectal liver metastases
Assay type: in vivo, mouse (male Balb/C)
Conditions: for ratio of hepatic replacement area (HRA) values in ischemic (clamped) left liver lobes versus non-ischemic right and median liver lobes: FIG. 4, I/R-subjected mice, day 10, sham about 1, untreated I/R about 2.5-fold; for accelerated (necrosis-associated) tumor growth in the clamped left liver lobes following I/R: left lobar I/R on day 5, livers day 10, ZM241385 1 micro-g/kg bolus + 10 ng/kg/min minipump, 3 days
Text: A mouse model has been enabled in which selective temporary occlusion of blood flow into the left liver lobe results in a profound acceleration of tumor growth in the clamped liver lobes, but not in the unclamped liver lobes. An A2A receptor agonist was then studied to determine its effect on the accelerated tumor growth.
• Male Balb/C mice (10-12 weeks) are housed under standard laboratory conditions with free access to water and chow and a 12-hour dark-light cycle. 2. Before the Experiment: Cell Culture • The murine colon carcinoma cell line C26 is cultured in Dulbecco's modified Eagle's medium supplemented with 5% heat-inactivated fetal calf serum, penicillin (100 units/ml) and streptomycin (100 μg/ml) in a 5% carbon dioxide environment. 3. Day 0: Induction of Liver Metastases • Confluent cultures of the C26 cell line are harvested by brief trypsinization (0.05 trypsin in 0.02% EDTA). • After centrifugation, single cell suspensions are prepared in PBS to a final concentration of 5×10^4 cells/100 μl. • Cell viability is determined by trypan blue staining, and should be ≧98%. • The induction of liver metastases is performed under inhalation anesthesia with a 1.5-2% isoflurane/O2 mixture using a mask. • Buprenorfine (3 μg/mouse) is administered intramuscularly prior to surgery to provide sufficient intra- and postoperative analgesia. • Surgical procedures are performed under aseptic conditions. • Body temperature is maintained at 36.5-37.5° C. by placing the animals on a heated table and covering them by aluminium foil. • Through a left lateral flank incision, 5×10^4 C26 colorectal carcinoma cells are injected into the splenic parenchyma (within an hour after trypsinisation). • After ten minutes, the spleen is removed to prevent intrasplenic tumor growth. • After the procedure a small amount of saline is left in the abdominal cavity and the peritoneum and skin are separately closed with 5.0 vicryl. • Animals are allowed to recover from anesthesia under standard laboratory conditions and are allowed free access to water and chow. 4. Day 0-5: • Micrometastases are allowed to develop throughout the liver for 5 days. 5. Day 5: Marine Model of Hepatic I/R • The induction of hepatic I/R is performed under inhalation anesthesia with a 1.5-2% isoflurane/O2 mixture using a mask. • Buprenorfine (3 μg/mouse) is administered intramuscularly prior to surgery to provide sufficient intra- and postoperative analgesia. • Surgical procedures are performed under aseptic conditions. • Body temperature is maintained at 36.5-37.5° C. by placing the animals on a heated table and covering them by aluminium foil. • ATL-313 solutions are prepared and suspended in osmotic minipumps (Alzet) at a dose of 3 ng/kg/min. Minipumps are placed in normal saline at 37° C. for at least 4 hours prior to the operation, to allow immediate drug delivery. • After laparotomy, mice receive an intraperitoneal bolus injection of 1 ng/kg ATL-313. • A control group received the A2AR antagonist ZM241385 as an intraoperative bolus (1 micro-g/kg) and subsequently continuously using osmotic intraperitoneal minipumps (10 ng/kg/min; 3 days). • Sham operated mice undergo laparotomy with exposure of the liver but without interruption of hepatic flow. • Partial hepatic I/R is induced by occluding the vascular inflow of the left lateral liver lobe for 45 minutes, corresponding to approximately 40% of the liver mass. • Surgical foil is placed over the laparotomy wound to avoid dehydration. • After removal of the clamps a small amount of saline is left in the abdominal cavity • The peritoneum and skin are separately closed with 5.0 vicryl. 6. Day 5-10: • Micrometastases are allowed to grow out to macrometastases (approximately 10-20% of the non-clamped lobes at day 10) for 5 days 7. Day 10: • Livers were harvested, fixed in formalin, and embedded in paraffin. Tissue sections were stained with H&E and the following parameters were assessed by an operator who was blinded to treatment. • 1. […]

[1] = ATL-313 1 ng/kg bolus + 3 ng/kg/min minipump

SMILES	ratio of hepatic replacement area (HRA) values in ischemic (clamped) left liver lobes versus non-ischemic right and median liver lobes	tissue necrosis (liver) (left lobar I/R on day 5 (45 min clamping), livers harvested day 10, H&E, ATL-313 1 ng/kg i.p. bolus + 3 ng/kg/min osmotic minipump)	accelerated (necrosis-associated) tumor growth in the clamped left liver lobes following I/R [1]	accelerated (necrosis-associated) tumor growth in the clamped left liver lobes following I/R (ATL-313 1 ng/kg bolus + 3 ng/kg/min minipump, listed as ATL)	inflammation following I/R (left lobar I/R on day 5, ATL-313 1 ng/kg bolus + 3 ng/kg/min minipump)
COC(=O)N1CCC(CC#Cc2nc(N)c3ncn(C4OC(C(=O)NC5CC5)C(O)C4O)c3n2)CC1 (stereo not shown) [ATL313, 4-{3-[6-Amino-9-(5-cyclopropylcarbamoyl-3,4-dihydroxy-tetrahydro-furan-2-yl)-9H-purin-2-yl]-prop-2-ynyl}-piperidine-1-carboxylic Acid methyl ester]	1	prevents; also recorded: almost completely prevented	prevents; also recorded: almost completely prevented	prevents the increase in tumor growth	almost completely prevented
Nc1nc(NCCc2ccc(O)cc2)nc2nc(-c3ccco3)nn12 [ZM241385, reference compound]	increasing the left-to-right/median ratio, although this difference did not reach statistical significance		appears to aggravate tumor growth		
